By IC50 is commonly meant the concentration that gives 50% inhibition. By solubility is commonly meant the dissolved amount per volume that the medium holds. What is called bioavailability is dose-corrected exposure relative to a reference, in per cent. Read a low bioavailability as little systemic uptake. In general, fraction unbound refers to free concentration divided by total concentration. As usually defined, the MRT is the average time that molecules of a dose stay in the body. Broadly, the clearance is the rate of elimination divided by the concentration. Low values mean inefficient removal, high ones efficient removal. In general, Papp refers to the rate of passage across a membrane or cell layer, normalised by area and donor concentration. One may read the chromatographic logD as a lipophilicity value derived from retention on a column. A lower chromatographic logD goes with a more hydrophilic compound.

Data set [1] deals with T1, Transient receptor potential cation channel subfamily V member 4 (Homo sapiens, UniProt Q9HBA0). In words: Antagonist activity at human TRPV4.
T1 sequence (Q9HBA0 whole entry): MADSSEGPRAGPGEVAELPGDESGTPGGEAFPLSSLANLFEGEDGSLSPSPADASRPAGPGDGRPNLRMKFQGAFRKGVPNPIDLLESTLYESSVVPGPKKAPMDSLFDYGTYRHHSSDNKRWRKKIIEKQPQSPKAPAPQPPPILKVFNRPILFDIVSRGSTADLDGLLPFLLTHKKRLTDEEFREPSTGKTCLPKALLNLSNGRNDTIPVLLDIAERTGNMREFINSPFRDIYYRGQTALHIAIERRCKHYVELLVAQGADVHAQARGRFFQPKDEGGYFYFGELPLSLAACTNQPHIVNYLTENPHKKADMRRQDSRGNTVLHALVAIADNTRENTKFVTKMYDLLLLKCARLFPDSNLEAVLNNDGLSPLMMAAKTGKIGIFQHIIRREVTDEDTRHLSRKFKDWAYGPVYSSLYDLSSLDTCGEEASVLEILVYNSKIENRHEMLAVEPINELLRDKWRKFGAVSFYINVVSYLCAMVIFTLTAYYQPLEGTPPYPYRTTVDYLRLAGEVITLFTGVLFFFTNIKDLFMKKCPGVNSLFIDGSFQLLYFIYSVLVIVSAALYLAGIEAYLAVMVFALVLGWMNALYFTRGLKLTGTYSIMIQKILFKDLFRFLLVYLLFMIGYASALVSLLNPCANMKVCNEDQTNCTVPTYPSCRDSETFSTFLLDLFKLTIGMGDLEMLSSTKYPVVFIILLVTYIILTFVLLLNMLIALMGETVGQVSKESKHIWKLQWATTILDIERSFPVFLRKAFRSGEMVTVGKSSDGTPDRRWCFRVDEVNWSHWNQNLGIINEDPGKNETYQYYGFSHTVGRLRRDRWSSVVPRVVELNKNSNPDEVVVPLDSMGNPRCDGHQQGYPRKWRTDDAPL
The nature of data set [2]: Ratio of Cmax to Cmin in human. The format is ADME.
The nature of data set [3]: Volume of distribution at steady state in Sprague-Dawley rat at 1 mg/kg, iv administered as 30 mins infusion or 1 to 2 mg/kg, po by HPLC-MS/MS analysis. The format is ADME, organism-based. Particulars: in vivo, read-out: Vdss.
Data set [4] in a line: Unbound AUC in human. The format is ADME.
The nature of data set [5]: Solubility of the compound in FaSSIF measured after 4 hrs. The format is physicochemical.
Data set [6] in a line: Unbound volume of distribution at steady state in Sprague-Dawley rat at 1 mg/kg, iv administered as 30 mins infusion or 1 to 2 mg/kg, po by HPLC-MS/MS analysis. The format is ADME, organism-based. Particulars: in vivo, 0.5 h.
Data set [7] is described as follows: Dose normalized AUC in Sprague-Dawley rat at 100 mg/kg, po using crystalline solid form of sample by HPLC-MS/MS analysis. The format is ADME, organism-based. Particulars: in vivo.
Data set [8] can be described thus: Oral bioavailability in Sprague-Dawley rat at 100 mg/kg using amorphous spray dried dispersion sample by HPLC-MS/MS analysis. The settings on record: in vivo. The format is ADME, organism-based.
Data set [9] is described as follows: Drug metabolism in rat hepatocytes assessed as oxidation of arene oxide metabolite by measuring 2-[(3R,4S)-4-(4-cyano-3-fluoro-phenoxy)-3-hydroxy-3-(hydroxymethyl)pyrrolidin-1-yl]sulfonyl-3,4-dihydroxy-5-(trifluoromethyl)benzonitrile formation by LC-MS/MS analysis. The format is ADME, cell-based, Hepatocyte.
Data set [10] in a line: Dose normalized AUC in Sprague-Dawley rat at 100 mg/kg, po using amorphous spray dried dispersion sample by HPLC-MS/MS analysis. The format is ADME, organism-based. The settings on record: in vivo.
The next data set deals with Rattus norvegicus. In words: Ratio of dose normalized AUC in Sprague-Dawley rat at 100 mg/kg, po using amorphous spray dried dispersion sample to dose normalized AUC in Sprague-Dawley rat at 100 mg/kg, po using crystalline solid form of sample. The settings on record: in vivo. The format is ADME, organism-based.
Data set [11] is described as follows: Ratio of unbound clearance in Sprague-Dawley rat at 1 mg/kg, iv administered as 30 mins infusion to unbound clearance in dog. The format is ADME, organism-based. The settings on record: in vivo, 0.5 h.
A short description of data set [12]: Dose normalized AUC in Sprague-Dawley rat at 1 mg/kg, po by HPLC-MS/MS analysis. The format is ADME, organism-based. The settings on record: in vivo.
A short description of data set [13]: Drug metabolism in rat hepatocytes assessed as GSH-mediated sulfonamide cleavage by measuring 2-amino-5-[[2-(carboxymethylamino)-1-[[2-cyano-4-(trifluoromethyl)phenyl]sulfanylmethyl]-2-oxo-ethyl]amino]-5-oxo-pentanoic acid formation by LC-MS/MS analysis. The format is ADME, cell-based, Hepatocyte.
A short description of data set [14]: Drug metabolism in rat hepatocytes assessed as rearomatization/conjugation by measuring metabolite formation by LC-MS/MS analysis. The format is ADME, cell-based, Hepatocyte.
The nature of data set [15]: Oral bioavailability in Sprague-Dawley rat at 100 mg/kg using crystalline solid form of sample by HPLC-MS/MS analysis. Particulars: in vivo. The format is ADME, organism-based.
The nature of data set [16]: Unbound volume of distribution at steady state in dog. The format is ADME, Canis lupus familiaris. The settings on record: in vivo.
Data set [17] is described as follows: Unbound clearance in Sprague-Dawley rat at 1 mg/kg, iv administered as 30 mins infusion by HPLC-MS/MS analysis. Particulars: in vivo, 0.5 h. The format is ADME, organism-based.
Data set [18] concerns the target T1, Transient receptor potential cation channel subfamily V member 4. In words: Antagonist activity at BacMam virus expressing human TRPV4 transduced in BHK/AC9 or HEK MSR2 cells assessed as inhibition of GSK634775-induced Ca2+ flux preincubated for 10 mins followed by agonist addition by Fluo-4 AM dye based FLIPR assay. The format is cell-based. (A change in cytosolic calcium serves as a functional read-out for many receptors and channels.)

Data set [19] can be described thus: Oral bioavailability in Sprague-Dawley rat at 1 mg/kg by HPLC-MS/MS analysis. The settings on record: in vivo. The format is ADME, organism-based.
A short description of data set [20]: Protein binding in dog plasma assessed as unbound fraction. The format is ADME, cell-free, Canis lupus familiaris.
Data set [21] is described as follows: Volume of distribution at steady state in dog. The format is ADME, Canis lupus familiaris. Particulars: in vivo, read-out: Vdss.
Data set [22] can be described thus: MRT in Sprague-Dawley rat at 1 mg/kg, iv administered as 30 mins infusion by HPLC-MS/MS analysis. The format is ADME, organism-based. The settings on record: in vivo.
A short description of data set [23]: Clearance in Sprague-Dawley rat at 1 mg/kg, iv administered as 30 mins infusion by HPLC-MS/MS analysis. The settings on record: in vivo. The format is ADME, organism-based.
The nature of data set [24]: Oral bioavailability in Sprague-Dawley rat at 1 to 2 mg/kg by HPLC-MS/MS analysis. The format is ADME, organism-based. The settings on record: in vivo.
Data set [25] in a line: Oral bioavailability in dog. The settings on record: in vivo. The format is ADME, organism-based, Canis lupus familiaris.
Data set [26] in a line: Mean residence time in dog. The format is ADME, Canis lupus familiaris. Particulars: in vivo.
Data set [27] in a line: Apparent permeability in dog MDCK cells. The format is ADME, cell-based, Canis lupus familiaris.
Data set [28] in a line: Lipophilicity, log D of the compound at pH 7.4 by chromatographic method. The format is physicochemical. The settings on record: buffer.
A short description of data set [29]: Unbound clearance in dog. The format is ADME, Canis lupus familiaris. The settings on record: in vivo.
Data set [30] in a line: Protein binding in rat plasma assessed as unbound fraction. The format is ADME, cell-free.
Data set [31] can be described thus: Clearance in dog. The format is ADME, Canis lupus familiaris. Particulars: in vivo.

≈ marks a conversion by molar mass, not a printed value.

Turning to `CC(C)Nc1nc2c(C(=O)N(C)C)c(Cl)c(Cl)cc2n1C1CCN(c2ccc(C(C)(C)C#N)cc2)CC1`, inhibition in data set [1] was half-maximal at 0.032 µM (IC50).

For `N#Cc1ccc(O[C@H]2CN(S(=O)(=O)c3ccc(Cl)cc3Cl)C[C@@]2(O)CO)cc1F`, the Ratio in data set [2] is reported as 15. In addition, the Vd in data set [3] was found to be 3.2 L/kg. In [4], this compound returned a fAUC of 240 ng·h/mL. The same compound showed a solubility at 4 h in data set [5] of 19 µg/mL (≈ 41.2 µM). Also, in data set [6], the Vduss came out at 54 L/kg.

Regarding `N#Cc1ccc(O[C@H]2CN(S(=O)(=O)c3ccc(C(F)(F)F)cc3C#N)C[C@@]2(O)CO)cc1F`, the AUC/dose in data set [7] turned out to be 0.0021 kg·h/L; in data set [10], 0.038 kg·h/L; in data set [12], 0.148 kg·h/L. Further, the Ratio in data set [2] is listed as 30; in data set [11], 22. The Vd in [3] was 3.6 L/kg. Also, the bioavailability in data set [8] came to 18%. Also, the concentration in solution in data set [5] (solubility at 4 h) was 25 µg/mL (≈ 51.5 µM). In [6], this compound gave a Vduss of 73 L/kg. Besides, the Drug metabolism entry in data set [9], in data set [13] and in [14] was “Metabolite_Detected” in each case. The “Ratio AUC” value in the data set with Rattus norvegicus was 18. In data set [15], this compound registered an F of 1%.

On to `N#Cc1ccc(O[C@H]2CN(S(=O)(=O)c3ccc(Cl)cn3)C[C@@]2(O)CO)cc1F`, for which the AUC/dose was 0.043 kg·h/L in [7], 0.5 kg·h/L in [10] and 0.63 kg·h/L in [12]. The figures for the Vduss in data set [16] and in data set [6] were 5.5 L/kg and 12 L/kg, respectively. Besides, the CL free in [17] amounted to 170 mL/min/kg; in data set [29] it was 12 mL/min/kg. The results for the Vd in data set [3] and in data set [21] were 2.2 L/kg and 1.9 L/kg, respectively. The bioavailability is 79% in [8]; 100% in data set [19]; 100% in data set [24]; 100% in data set [25]; 7% in data set [15] (Sprague-Dawley). The IC50 in data set [18] was found to be 0.034 µM. Besides, the concentration in solution in [5] (solubility at 4 h) came to 26 µg/mL (≈ 60.8 µM). The figures for the fraction unbound in [20] and in data set [30] were 0.34 and 0.18, respectively. For the same compound, the MRT in data set [22] came out at 1.2 h; in [26], 7.8 h. Further, the clearance worked out at 30 mL/min/kg in [23] and 4.1 mL/min/kg in data set [31]. In addition, the apparent permeability coefficient (Papp) in data set [27] is 0.22 ×10⁻⁶ cm/s. The same compound displayed a chromatographic logD in data set [28] of 3.4. Further, the Ratio in data set [11] is on record as 14.

`N#Cc1ccc(O[C@H]2CN(S(=O)(=O)c3ccc(Cl)cn3)C[C@]2(O)CO)cc1F` gave a CL free in data set [17] of 150 mL/min/kg. Moreover, in data set [18], the IC50 was found to be 0.19 µM. In data set [5], the solubility at 4 h was 130 µg/mL (≈ 304 µM). For the same compound, the MRT in data set [22] is 3.3 h. In data set [28], this compound returned a chromatographic logD of 3.5.

As for `N#Cc1ccc(O[C@H]2CN(S(=O)(=O)c3ccc(C(F)(F)F)cc3)C[C@@]2(O)CO)cc1F`, the CL free in data set [17] was determined as 1500 mL/min/kg. For the same compound, the Vd in [3] came to 5.9 L/kg. Moreover, the IC50 in [18] turned out to be 0.1 µM. In data set [5], this compound returned a solubility at 4 h of 5 µg/mL (≈ 10.9 µM). The Vduss in [6] is 180 L/kg. The compound also registered an MRT in data set [22] of 2 h. For the same compound, the clearance in data set [23] is 50 mL/min/kg. The same compound came in with a bioavailability in data set [24] of 100%. The chromatographic logD in [28] came out at 4.5. For the same compound, in data set [30], the free fraction (fraction unbound) turned out to be 0.033.

As to `N#Cc1ccc(O[C@H]2CN(S(=O)(=O)c3ccccc3C#N)C[C@@]2(O)CO)cc1F`, in data set [17], the CL free worked out at 200 mL/min/kg. For the same compound, the Vd in data set [3] was determined as 0.9 L/kg. Further, in data set [18], the IC50 stood at 0.0038 µM. Besides, in data set [5], the solubility at 4 h was 20 µg/mL (≈ 47.9 µM). In data set [6], the Vduss worked out at 4.6 L/kg. In data set [22], the MRT was determined as 0.4 h. Besides, the clearance in data set [23] was 39 mL/min/kg. The bioavailability in data set [24] worked out at 32%. The compound further had a chromatographic logD in [28] of 3.4. Also, in data set [30], the fraction unbound is 0.197.

The record behind these values is ChEMBL document CHEMBL4321813, “Discovery of GSK3527497: A Candidate for the Inhibition of Transient Receptor Potential Vanilloid-4 (TRPV4)” (J Med Chem, 2019).
